Reference: US20130317068A1, “SUBSTITUTED 1,2,4-TRIAZOLE COMPOUNDS AS A SEED TREATMENT TO CONTROL PESTS” (Dow Agrosciences LLC, priority 2012, published 2013)

Tests used:
[1] = system: Aphis gossypii (cotton aphid); assay: Insecticidal activity on cotton aphid, solutions applied to cabbage leaf surface then infested; assay type: in vivo; settings: for mortality at 50 ppm / mortality at 200 ppm: Aphis gossypii; for mortality at 200 ppm: Rate 200 PPM solution
Protocol: (§1) Different substituted 1,2,4-triazole compounds of the present disclosure were tested for insecticidal activity on Aphis gossypii (cotton aphid) and Myzus persicae (green peach aphid). The different substituted 1,2,4-triazole compounds were formulated as either 200 PPM solutions or 50 PPM solutions. The 200 PPM solutions or 50 PPM solutions of the different substituted 1,2,4-triazole compounds were applied to a cabbage leaf surface and the resulting samples were subjected to an infestation of Aphis gossypii and Myzus persicae.
(§2) In Table 1, “ND” means mortality data was not determined at this rate.

[2] = system: Myzus persicae (green peach aphid); assay: Insecticidal activity on green peach aphid, solutions applied to cabbage leaf surface then infested; assay type: in vivo; settings: for mortality at 50 ppm: Rate 50 PPM solution; for mortality at 200 ppm: Rate 200 PPM solution
Protocol: as §1, §2

Compound	mortality at 50 ppm ([1]; Rate 50 PPM solution) [%]	mortality at 200 ppm [1] [%]	mortality at 50 ppm [2] [%]	mortality at 200 ppm [2] [%]	Average % mortality, Cotton Aphid ([1]; Rate 50 PPM solution) [%]
Cn1nc(-c2c(F)cccc2Cl)nc1-c1sc(Cl)c(Cl)c1Cl	32	99	81		
Cn1nc(-c2c(F)cccc2F)nc1C1(C)CC1(Cl)Cl (stereo not drawn) [drawing 11]	90		13	81	
Cc1c(-c2nc(-c3c(F)cccc3Cl)nn2C)csc1-c1ccc(OC(F)(F)C(F)Cl)cc1 (stereo not drawn)	84		73		
Cc1c(Br)csc1-c1nc(-c2c(F)cccc2Cl)nn1C	96	100	87	63	
Cn1nc(-c2c(Cl)cncc2Cl)nc1-c1ccc(C(F)(F)F)cc1	88		79	87	
Cn1nc(-c2c(F)cccc2F)nc1C1(C)CC1(Cl)Cl (stereo not drawn) [drawing 12]					95
Cc1cc(-c2ccc(OC(F)(F)C(F)Cl)cc2)sc1-c1nc(-c2c(F)cccc2Cl)nn1C (stereo not drawn)	66		75		
